This assay deals with human σ1 receptor (Homo sapiens (Human), UniProt Q99720). As to the kind of experiment: Human σ1 receptor radioligand assay. Type of assay: binding. The note with it: transfected HEK-293 membranes, [3H](+)-pentazocine radioligand. As to the method: Human σ1 Receptor Radioligand Assay
Chain of human σ1 receptor (Q99720 whole entry): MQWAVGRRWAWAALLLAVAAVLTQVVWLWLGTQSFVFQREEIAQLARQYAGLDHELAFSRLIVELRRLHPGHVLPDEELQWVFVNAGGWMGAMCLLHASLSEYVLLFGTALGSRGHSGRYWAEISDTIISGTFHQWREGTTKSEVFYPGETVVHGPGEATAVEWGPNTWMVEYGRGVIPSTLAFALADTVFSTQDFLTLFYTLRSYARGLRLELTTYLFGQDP
To investigate binding properties of test compounds to human σ1 receptor, transfected HEK-293 membranes and [^3H](+)-pentazocine (Perkin Elmer, NET-1056), as the radioligand, were used. The assay was carried out with 7 μg of membrane suspension, 5 nM of [^3H](+)-pentazocine in either absence or presence of either buffer or 10 μM Haloperidol for total and non-specific binding, respectively. Binding buffer contained Tris-HCl 50 mM at pH 8. Plates were incubated at 37° C. for 120 minutes. After the incubation period, the reaction mix was then transferred to MultiScreen HTS, FC plates (Millipore), filtered and plates were washed 3 times with ice-cold 10 mM Tris-HCL (pH7.4). Filters were dried and counted at approximately 40% efficiency in a MicroBeta scintillation counter (Perkin-Elmer) using EcoScint liquid scintillation cocktail
The compound `CCN1CC2(CCCN(Cc3ccccc3)CC2)OC2(CC2)C1=O` (stereo not drawn) [Example 12, 8-benzyl-13-ethyl-4-oxa-8,13-diazadispiro[2.1.6.3]tetradecan-14-one] yielded a Ki of less than 100 nM.
With `CC(C)CCN1CCCC2(CC1)CN(C(=O)c1ccccc1)CC1(CC1)O2` (stereo not drawn) [Example 28, (8-isopentyl-4-oxa-8,13-diazadispiro[2.1.6.3]tetradecan-13-yl)(phenyl)methanone], the Ki is less than 100 nM.
Consider `CCN1CC(C)(C)OC2(CCCN(CC(C)C)CC2)C1` (stereo not drawn) [Example 89, 4-ethyl-9-isobutyl-2,2-dimethyl-1-oxa-4,9-diazaspiro[5.6]dodecane], for which the Ki was less than 100 nM.
With `c1ccc(CN2CCCC3(CC2)CN(c2ccccc2)CC2(CC2)O3)cc1` (stereo not drawn) [Example 21, 8-benzyl-13-phenyl-4-oxa-8,13-diazadispiro[2.1.6.3]tetradecane] the figure was less than 100 nM; with `CCN1CC2(CN(CCc3ccccc3)C2)OC2(CC2)C1=O` [Example 5], less than 500 nM.
In the case of `c1ccc(CN2CCCC3(C2)CN(Cc2ccccc2)CC2(CC2)O3)cc1` (stereo not drawn) [Example 78, 7,12-dibenzyl-4-oxa-7,12-diazadispiro[2.1.5.3]tridecane], the Ki is less than 100 nM.
In turn, `CC(C)CN1CC2(C1)CN(C(C)C)C(=O)[C@@H](C)O2` [Example 42, (R)-2-isobutyl-8-isopropyl-6-methyl-5-oxa-2,8-diazaspiro[3.5]nonan-7-one] showed a Ki of no less than 500 nM.
In turn, `CCN1C[C@]2(CCCN(CCC(C)C)CC2)O[C@@H](C)C1=O` [Example 49, (2S,6R)-4-ethyl-9-isopentyl-2-methyl-1-oxa-4,9-diazaspiro[5.6]dodecan-3-one] registered a Ki of no less than 500 nM.
Compound `CC(C)N1CC2(CN(CC(C)(C)C)C2)O[C@H](C)C1=O` [Example 77, (R)-8-isopropyl-6-methyl-2-neopentyl-5-oxa-2,8-diazaspiro[3.5]nonan-7-one] had a Ki of no less than 500 nM.
Compound `CC1(C)CN(C(=O)c2ccccc2)CC2(CCCN(CCc3ccccc3)CC2)O1` (stereo not drawn) [Example 34, (2,2-dimethyl-9-phenethyl-1-oxa-4,9-diazaspiro[5.6]dodecan-4-yl)(phenyl)methanone] returned a Ki of less than 100 nM.
Take `O=C1N(c2ccccc2)CC2(CCCN(Cc3ccccc3)C2)OC12CC2` (stereo not drawn) [Example 15, 7-benzyl-12-phenyl-4-oxa-7,12-diazadispiro[2.1.5.3]tridecan-13-one]: the Ki was no less than 500 nM.
On to `CCN1CC2(CCCN(CCc3ccccc3)CC2)OC2(CC2)C1` (stereo not drawn) [Example 16, 13-Ethyl-8-phenethyl-4-oxa-8,13-diazadispiro[2.1.6.3]tetradecane], for which the inhibitory constant (Ki) was less than 100 nM.
For the compound `O=C(c1ccccc1)N1CC2(CC2)OC2(CN(CCc3ccccc3)C2)C1` [Example 91, (7-Phenethyl-4-oxa-7,10-diazadispiro[2.1.3.3]undecan-10-yl)(phenyl)methanone], the Ki was no less than 500 nM.
Regarding `CCN1CC2(CCCN(CCc3ccccc3)CC2)OC(C)(C)C1=O` (stereo not drawn) [Example 30, 4-ethyl-2,2-dimethyl-9-phenethyl-1-oxa-4,9-diazaspiro[5.6]dodecan-3-one], the Ki is less than 100 nM.
With `O=C1N(Cc2ccccc2)CC2(CN(CCc3ccccc3)C2)OC12CC2` [Example 33, 10-benzyl-7-phenethyl-4-oxa-7,10-diazadispiro[2.1.3.3]undecan-11-one] the figure was less than 100 nM; with `CCN1C[C@@]2(CCCN(Cc3ccccc3)CC2)O[C@@H](C)C1=O` [Example 61, (2S,6S)-9-benzyl-4-ethyl-2-methyl-1-oxa-4,9-diazaspiro[5.6]dodecan-3-one], no less than 500 nM.
The compound `CCN1C[C@@]2(CCCN(Cc3ccccc3)CC2)O[C@H](C)C1=O` [Example 59, (2R,6S)-9-benzyl-4-ethyl-2-methyl-1-oxa-4,9-diazaspiro[5.6]dodecan-3-one] had a Ki of no less than 500 nM.
With `CCN1CC2(CCCN(Cc3ccccc3)CC2)OC(C)(C)C1=O` (stereo not drawn) [Example 57, 9-benzyl-4-ethyl-2,2-dimethyl-1-oxa-4,9-diazaspiro[5.6]dodecan-3-one] the figure was less than 100 nM.

The record behind these values is US10689398B2, “OXA-Diazaspiro compounds having activity against pain” (ESTEVE PHARMACEUTICALS, S.A., priority 2015, dated 2020).
